In PMC12266748, “A Xanthine Derivative With Novel Heat Shock Protein 90‐Alpha Inhibitory and Senolytic Properties” (Aging Cell, 2025):
Where two headings read alike, the source gives them in different places.

Legend:
IMR90 cells = experiment: Immunofluorescence of Cytochrome C / mitochondria colocalization in senescent IMR90; assay type: cell-based, Homo sapiens; settings: senescent IMR90 (PD21), 48 h, K5 25 μM, Dasatinib 1 μM; Vehicle OR = 0.913
Description: Treated/untreated senescent IMR90 and MCF7 cells were fixed, permeabilized, and stained following suppliers' recommendations. Images were acquired using an Olympus IX83 research inverted microscope (IF) and a phase microscopy Nikon ECLIPSE Ei R (IHC) at 40× MAG.
Immunofluorescence staining. Treated/untreated IMR90 and MCF7 cells were cultured in LabTek II chamber slides (Nunc, Biosigma). At the final time point, cells were stained with 500 nM MitoTracker Orange (Thermo Fisher Scientific) for 30 min at 37°C and then fixed in 4% PFA (Merck) for 10 min, RT, and permeabilized with 0.1% Triton solution (Merck) for 30 min at RT. Samples were blocked in 5% BSA for 90 min, incubated overnight at 4°C with primary antibody against Cytochrome C (1:50, RbMAb, Abcam), and 1h at RT with secondary antibody Alexa Fluor 488 goat anti-Rb (1:200, Thermo Fisher Scientific). Nuclei were stained with DAPI (Cell Signaling) for 10 min at RT, and ProLong Glass Antifade Mountant (Thermo Fisher Scientific) was used to seal coverslips. Images were acquired using an Olympus IX83 research inverted microscope at 40X magnifications.

[1] = Mouse plasma exposure after oral and intravenous administration, brain and kidney distribution; assay type: in vivo, CD1 mouse; settings: for Kp: CD1, mouse, relative to plasma; for half-life: read-out: T ½ in plasma
Description: APHAD S.r.l (Buccinasco, MI, Italy) performed all evaluations. Detailed protocols are reported in the extended methods section.
Determination of the mouse plasma exposure of K5 after oral […] and intravenous (IV) administration. Determination of K5 distribution in brain and kidney after IV administration. Weighed tissues were homogenized with a Precellys Evolution Homogenizer 1g/5mL of 20 mM ammonium formate buffer pH 6.5 using 3 cycles 25 sec at a speed of 7600 rpm. Plasma or tissue was added to ACN containing Verapamil as Internal standard (0.1 µM) in a […]. Samples were shaken for 10 min at 300 rpm at RT and centrifuged for 15 min at 10°C at 4700 rpm. Working solutions (WS) for the calibration curves and QC samples were prepared by diluting ACN in the range 10-20000ng/mL range. Verapamil was diluted in ACN to reach the final concentration of 0.1 µM (WS_IS). Samples were analyzed on an Acquity UPLC (Waters) coupled with an API 3200 Triple Quadrupole ABSciex. Non-compartmental analysis was applied, and the following pharmacokinetic (PK) parameters were evaluated for each subject or group of subjects: maximum plasma concentration (Cmax), plasma concentration at last timepoint (Clast), time of maximum plasma concentration (Tmax), AUC from time zero to the time of the last quantifiable plasma concentration (AUC0-last), AUC from time zero extrapolated to infinity (AUCinf), mean residence time (MRT), half-life (T½). AUCs were calculated using a linear trapezoidal rule, and a uniform weight was performed as the first general approach. Graphical concentration-time curves are produced after Log transformation (PK Solver 2.0, Excel 2007 Microsoft add-in). The ke was estimated from the terminal part of the log-concentration time plot, which included at least three data points excluding the Cmax. If the terminal phase regression based on R2 was less than 0.85, then the T½ and the AUC0-inf were not reported.

[2] = plasma, oral 30 mg/kg, CD1 mouse

## Cc1ccccc1-n1c(=O)n(Cc2ccccc2)c(=O)c2[nH]cnc21 [Compound K5, 1-benzyl-3-(2-methylphenyl)-7H-purine-2,6-dione]
IMR90 cells
  Cytochrome C / mitochondria colocalization, Overlap R (OR): 0.454
[1]; brain, IV 5 mg/kg, read-out: distribution in the brain
  Kp: 0.35
[1]; kidney, IV 5 mg/kg, read-out: distribution in the kidney
  Kp: 1.31
[1]; IV 5 mg/kg, CD1 mouse
  distribution volume: high
[1]; oral 30 mg/kg, CD1 mouse
  time of Cmax: 10 min
[1]; plasma, IV 5 mg/kg, CD1 mouse
  clearance: 38 mL/min/kg
  half-life: 0.217 h
[1]; plasma, oral 30 mg/kg vs IV 5 mg/kg, CD1 mouse
  bioavailability: 54%
[1]; [2]
  Cmax: 2800 ng/mL
  half-life: ~5 h
[1]; plasma, oral 30 mg/kg, CD1 mouse, read-out: mean residence time (MRT) (converted)
  MRT: ~5 h
